Test results as given in patent US12286435B2, “Compound having benzo seven-membered ring structure, preparation method therefor, and use thereof” (BIONNA (BEIJING) MEDICAL TECHNOLOGY CO., LTD., priority 2019, dated 2025).
Counter-ions that a name gives are not always drawn.

Legend:
BRD4 BD1 protein = BRD4 BD1 protein (Homo sapiens (Human), UniProt O60885); assay: Fluorescence polarization binding affinity (Ki) with BRD4 BD1 protein; conditions: fluorescence polarization; Ki calculated from IC50
BRD4 BD2 protein = BRD4 BD2 protein (Homo sapiens (Human), UniProt O60885); assay: Fluorescence polarization binding affinity (Ki) with BRD4 BD2 protein; conditions: fluorescence polarization; Ki calculated from IC50

Row | SMILES | Ki (BRD4 BD1 protein) [nM] | Ki (BRD4 BD2 protein) [nM]
1 | Cc1nnn2c1-c1ccc(C3CCNCC3)cc1C(Nc1ccc(Cl)cc1)CC2 (stereo not shown) [BF169, N-(4-chlorophenyl)-1-methyl-9-(piperidin-4-yl)-6,7-dihydro-5H-benzo[c][1,2,3]triazolo[1,5-a]azepin-7-amine hydrochloride] | > 20000 | 661
2 | Cc1nnn2c1-c1ccc(C3CCN(C)CC3)cc1C(Nc1ccc(Cl)cc1)CC2 (stereo not shown) [BF178, N-(4-chlorophenyl)-1-methyl-9-(1-methylpiperidin-4-yl)-6,7-dihydro-5H-benzo[c][1,2,3]triazolo[1,5-a]azepin-7-amine] | > 20000 | > 20000
3 | Cc1nnn2c1-c1ccc(C3=CCNCC3)cc1C(Nc1cc(F)cc(Cl)c1)CC2 (stereo not shown) [BH06, N-(3-chloro-5-fluorophenyl)-1-methyl-9-(1,2,3,6-tetrahydropyridin-4-yl)-6,7-dihydro-5H-benzo[c][1,2,3]triazolo[1,5-a]azepin-7-amine 2,2,2-trifluoroacetate] | 596 | 35.7
4 | COc1cccc(NC2CCn3nnc(C)c3-c3ccc(C4=CCN(C)CC4)cc32)c1 (stereo not shown) [BH23, N-(3-methoxyphenyl)-1-methyl-9-(1-methyl-1,2,3,6-tetrahydropyridin-4-yl)-6,7-dihydro-5H-benzo[c][1,2,3]triazolo[1,5-a]azepin-7-amine 2,2,2-trifluoroacetate] | 751 | 75.3
5 | COc1cccc(NC2CCn3nnc(C)c3-c3ccc(C4=CCN(C(C)=O)CC4)cc32)c1 (stereo not shown) [BH27, 1-(4-(7-((3-methoxyphenyl)amino)-1-methyl-6,7-dihydro-5H-benzo[c][1,2,3]triazolo[1,5-a]azepin-9-yl)-3,6-dihydropyridin-1(2H)-yl)ethan-1-one] | 70.1 | 2.95
6 | Cc1nnn2c1-c1ccc(C3=CCN(C)CC3)cc1C(Oc1cccc(Cl)c1)CC2 (stereo not shown) [BH43, 7-(3-chlorophenoxy)-1-methyl-9-(1-methyl-1,2,3,6-tetrahydropyridin-4-yl)-6,7-dihydro-5H-benzo[c][1,2,3]triazolo[1,5-a]azepine 2,2,2-trifluoroacetate] | > 100000 | 316
7 | Cc1nnn2c1-c1ccc(-c3cnn(C)c3)cc1C(NC1CCCCC1)CC2 (stereo not shown) [BH46, N-cyclohexyl-1-methyl-9-(1-methyl-1H-pyrazol-4-yl)-6,7-dihydro-5H-benzo[c][1,2,3]triazolo[1,5-a]azepin-7-amine 2,2,2-trifluoroacetate] | 689 | 907
8 | CC(=O)N1CC=C(c2ccc3c(c2)C(Oc2cccc(Cl)c2)CCn2nnc(C)c2-3)CC1 (stereo not shown) [BH81, 1-(4-(7-(3-chlorophenoxy)-1-methyl-6,7-dihydro-5H-benzo[c][1,2,3]triazolo[1,5-a]azepin-9-yl)-3,6-dihydropyridin-1(2H)-yl)ethan-1-one] | 869 | 31.1
9 | CCC(=O)N1CC=C(c2ccc3c(c2)C(Nc2cccc(Cl)c2)CCn2nnc(C)c2-3)CC1 (stereo not shown) [BH86, 1-(4-(7-((3-chlorophenyl)amino)-1-methyl-6,7-dihydro-5H-benzo[c][1,2,3]triazolo[1,5-a]azepin-9-yl)-3,6-dihydropyridin-1(2H)-yl)propan-1-one] | 9.51 | 6.43
10 | CCC(C)N1CC=C(c2ccc3c(c2)C(Nc2cccc(Cl)c2)CCn2nnc(C)c2-3)CC1 (stereo not shown) [BH87, 9-(1-(sec-butyl)-1,2,3,6-tetrahydropyridin-4-yl)-N-(3-chlorophenyl)-1-methyl-6,7-dihydro-5H-benzo[c][1,2,3]triazolo[1,5-a]azepin-7-amine 2,2,2-trifluoroacetate] | 1100 | 44.5
11 | Cc1nnn2c1-c1ccc(C3=CCN(C4CCCC4)CC3)cc1C(Nc1cccc(Cl)c1)CC2 (stereo not shown) [BH107, N-(3-chlorophenyl)-9-(1-cyclopentyl-1,2,3,6-tetrahydropyridin-4-yl)-1-methyl-6,7-dihydro-5H-benzo[c][1,2,3]triazolo[1,5-a]azepin-7-amine 2,2,2-trifluoroacetate] | 1740 | 17.6
12 | CCCN1CC=C(c2ccc3c(c2)C(Nc2cccc(Cl)c2)CCn2nnc(C)c2-3)CC1 (stereo not shown) [BH120, N-(3-chlorophenyl)-1-methyl-9-(1-propyl-1,2,3,6-tetrahydropyridin-4-yl)-6,7-dihydro-5H-benzo[c][1,2,3]triazolo[1,5-a]azepin-7-amine 2,2,2-trifluoroacetate] | 583 | 21.9
13 | Cc1nnn2c1-c1ccc(C3=CCN(C(=O)C4CC4)CC3)cc1C(Nc1cccc(Cl)c1)CC2 (stereo not shown) [BH123, (4-(7-((3-chlorophenyl)amino)-1-methyl-6,7-dihydro-5H-benzo[c][1,2,3]triazolo[1,5-a]azepin-9-yl)-3,6-dihydropyridin-1 (2H)-yl) (cyclopropyl)methanone] | 46.7 | 7.64
14 | Cc1nnn2c1-c1ccc(C3=CCN(C4CCC4)CC3)cc1C(Nc1ccc(F)c(Cl)c1)CC2 (stereo not shown) [BI23, N-(3-chloro-4-fluorophenyl)-9-(1-cyclobutyl-1,2,3,6-tetrahydropyridin-4-yl)-1-methyl-6,7-dihydro-5H-benzo[c][1,2,3]triazolo[1,5-a]azepin-7-amine 2,2,2-trifluoroacetate] | 1060 | 57.3
15 | Cc1nnn2c1-c1ccc(C3=CCN(C(C)C)CC3)cc1C(Nc1ccc(F)c(Cl)c1)CC2 (stereo not shown) [BI24, N-(3-chloro-4-fluorophenyl)-9-(1-isopropyl-1,2,3,6-tetrahydropyridin-4-yl)-1-methyl-6,7-dihydro-5H-benzo[c][1,2,3]triazolo[1,5-a]azepin-7-amine 2,2,2-trifluoroacetate] | 5410 | 86.4
16 | Cc1nnn2c1-c1ccc(C3=CCN(C4CCC4)CC3)cc1C(Nc1cc(Cl)ccc1F)CC2 (stereo not shown) [BI26, N-(5-chloro-2-fluorophenyl)-9-(1-cyclobutyl-1,2,3,6-tetrahydropyridin-4-yl)-1-methyl-6,7-dihydro-5H-benzo[c][1,2,3]triazolo[1,5-a]azepin-7-amine 2,2,2-trifluoroacetate] | 861 | 45.4
17 | Cc1nnn2c1-c1ccc(C3=CCN(C4CCCCC4)CC3)cc1C(Nc1cccc(C#N)c1)CC2 (stereo not shown) [BI29, 3-((9-(1-cyclohexyl-1,2,3,6-tetrahydropyridin-4-yl)-1-methyl-6,7-dihydro-5H-benzo[c][1,2,3]triazolo[1,5-a]azepin-7-yl)amino)benzonitrile 2,2,2-trifluoroacetate] | 2660 | 168
18 | Cc1nnn2c1-c1ccc(C3=CCN(C4CCCC4)CC3)cc1C(Nc1cccc(C#N)c1)CC2 (stereo not shown) [BI31, 3-((9-(1-cyclopentyl-1,2,3,6-tetrahydropyridin-4-yl)-1-methyl-6,7-dihydro-5H-benzo[c][1,2,3]triazolo[1,5-a]azepin-7-yl)amino)benzonitrile 2,2,2-trifluoroacetate] | 2290 | 151
19 | Cc1nnn2c1-c1ccc(C3=CCN(C(C)C)CC3)cc1C(Nc1cccc(C#N)c1)CC2 (stereo not shown) [BI34, 3-((9-(1-isopropyl-1,2,3,6-tetrahydropyridin-4-yl)-1-methyl-6,7-dihydro-5H-benzo[c][1,2,3]triazolo[1,5-a]azepine7-yl)amino)benzonitrile 2,2,2-trifluoroacetate] | 4200 | 291
20 | Cc1nnn2c1-c1ccc(C3=CCN(C4CCC4)CC3)cc1C(Nc1cccc(C#N)c1)CC2 (stereo not shown) [BI36, 3-(((9-(1-cyclobutyl-1,2,3,6-tetrahydropyridin-4-yl))-1-methyl-6,7-dihydro-5H-benzo[c][1,2,3]triazolo[1,5-a]azepin-7-yl)amino)benzonitrile 2,2,2-trifluoroacetate] | 1850 | 89.8
21 | CCN1CC=C(c2ccc3c(c2)C(Nc2cccc(C#N)c2)CCn2nnc(C)c2-3)CC1 (stereo not shown) [BI37, 3-((9-(1-ethyl-1,2,3,6-tetrahydropyridin-4-yl)-1-methyl-6,7-dihydro-5H-benzo[c][1,2,3]triazolo[1,5-a]azepin-7-yl)amino)benzonitrile 2,2,2-trifluoroacetate] | 2570 | 196
22 | Cc1nnn2c1-c1ccc(C3=CCN(C4CCCC4)CC3)cc1C(Nc1cccc(S(C)(=O)=O)c1)CC2 (stereo not shown) [BI55, 9-(1-cyclopentyl-1,2,3,6-tetrahydropyridin-4-yl)-1-methyl-N-(3-(methylsulfonyl)phenyl)-6,7-dihydro-5H-benzo[c][1,2,3]triazolo[1,5-a]azepin-7-amine 2,2,2-trifluoroacetate] | 3100 | 116
23 | Cc1nnn2c1-c1ccc(C3=CCN(C4CCCCC4)CC3)cc1C(Nc1cccc(S(C)(=O)=O)c1)CC2 (stereo not shown) [BI57, 9-(1-cyclohexyl-1,2,3,6-tetrahydropyridin-4-yl)-1-methyl-N-(3-(methylsulfonyl)phenyl)-6,7-dihydro-5H-benzo[c][1,2,3]triazolo[1,5-a]azepin-7-amine 2,2,2-trifluoroacetate] | 3610 | 147
24 | Cc1nnn2c1-c1ccc(C3=CCN(C(C)C)CC3)cc1C(Nc1cccc(S(C)(=O)=O)c1)CC2 (stereo not shown) [BI60, 9-(1-isopropyl-1,2,3,6-tetrahydropyridin-4-yl)-1-methyl-N-(3-(methylsulfonyl)phenyl)-6,7-dihydro-5H-benzo[c][1,2,3]triazolo[1,5-a]azepin-7-amine 2,2,2-trifluoroacetate] | 4740 | 307
25 | Cc1nnn2c1-c1ccc(C3=CCN(C4CCC4)CC3)cc1C(Nc1cccc(S(C)(=O)=O)c1)CC2 (stereo not shown) [BI61, 9-(1-cyclobutyl-1,2,3,6-tetrahydropyridin-4-yl)-1-methyl-N-(3-(methylsulfonyl)phenyl)-6,7-dihydro-5H-benzo[c][1,2,3]triazolo[1,5-a]azepin-7-amine 2,2,2-trifluoroacetate] | 3200 | 148
26 | Cc1nnn2c1-c1ccc(C3=CCN(C(C)C)CC3)cc1C(Nc1cc(Cl)ccc1F)CC2 (stereo not shown) [BI68, N-(5-chloro-2-fluorophenyl)-9-(1-isopropyl-1,2,3,6-tetrahydropyridin-4-yl)-1-methyl-6,7-dihydro-5H-benzo[c][1,2,3]triazolo[1,5-a]azepin-7-amine 2,2,2-trifluoroacetate] | 1110 | 45.1
